Laboratory results from patent US10988474B2, “Compounds acting at multiple prostaglandin receptors giving a general anti-inflammatory response” (ALLERGAN, INC., priority 2011, dated 2021).

How the values were obtained:
Type in all cases: cell-based
[1] = target: T1, human prostanoid IP receptor (Homo sapiens, UniProt P43119); assay: FLIPR Ca2+ signaling PG antagonist assay, IP stable cell line; details: HEK-293 EBNA cells, human recombinant IP, no exogenous G-protein; standard agonist Cicaprost
T1 construct: expressed in transfected cells
Experimental: (§1) The above compounds were tested for PG antagonist activity as follows using human recombinant prostanoid receptor (DP1, EP1-4, FP, IP and TP) stable cell lines: In order to measure the response of Gs and Gi coupled prostanoid receptors as a Ca^2+ signal, chimeric G protein cDNAs were used. Stable cell lines over-expressing human prostanoid DP1, EP1-4, FP, IP, and TP receptors were established as follows:
(§2) Briefly, human prostanoid DP1, EP2, and EP4 receptor cDNAs were co-transfected with chimeric Gqs cDNA containing a haemagglutanin (HA) epitope; human prostanoid EP3 receptors were co-transfected with chimeric Gqi-HA; human EP1, FP, IP, and TP receptor cDNAs were expressed with no exogenous G-proteins. Gqs and Gqi chimeric cDNAs (Molecular Devices, Sunnyvale, Calif., U.S.A.), as well as cDNAs of prostanoid receptors, were cloned into a pCEP4 vector with a hygromycin B selection marker. Transfection into HEK-293 EBNA (Epstein-Barr virus nuclear antigen) cells was achieved by the FuGENE 6 transfection Reagent (Roche Applied Science, Indianapolis, Ind., USA). Stable transfectants were selected according to hygromycin resistance. Because Gqs and Gqi contained an HA epitope, G-protein expression was detected by Western blotting analysis using anti-mouse HA monoclonal antibody and horseradish peroxidase (HRP)-conjugated secondary antibody, while functional expression of prostanoid receptors was detected by FLIPR screening (Matias et al., 2004). These stable cell lines were validated using previously published antagonists at 10 μM against serial dilutions of standard agonists by FLIPR functional assays for Ca^2+ Signaling (as described below).
(§3) Ca^2+ signaling studies were performed using a FLIPR TETRA system (Molecular Devices, Sunnyvale, Calif., USA) in the 384-format. This is a high-throughput instrument for cell-based assays to monitor Ca^2+ signaling associated with GPCRs and ion channels. Cells were seeded at a density of 5×10^4 cells/well in BioCoat poly-D-lysine coated, black wall, clear bottom 384-well plates (BD Biosciences, Franklin lakes, NJ, USA) and allowed to attach overnight in an incubator at 37° C. The cells were then washed twice with HBSS-HEPES buffer (Hanks' balanced salt solution without bicarbonate and phenol red, 20 mM HEPES, pH 7.4) using an ELx405 Select CW Microplate Washer (BioTek, Winooski, Vt., USA). After 60 min of dye-loading in the dark using the Ca^2+-sensitive dye Fluo-4AM (Invitrogen, Carlsbad, Calif., USA), at a final concentration of 2×10^−6M, the plates were washed 4 times with HBSS-HEPES buffer to remove excess dye and leaving 50 μl of buffer in each well. The plates were then placed in the FLIPR TETRA instrument and allowed to equilibrate at 37° C. Compounds were added in a 25 μl volume to each well to give final concentrations of 0.1 μM, 0.3 μM, 1 μM, 3 μM, 10 μM, and 30 μM; or 0.067 μM, 0.1 μM, 0.2 μM, 0.3 μM, 0.67 μM, and 1 μM for cells over-expressing TP receptors. After 4.5 minutes, a 7-point serial dilution of the standard agonist for the corresponding receptor, in a 25 μl volume was injected at the final concentrations from 10^−11M to 10^−5M in 10-fold serial dilution increments for cells expressing human recombinant DP1, EP1, EP2, EP3, EP4, FP, and IP receptors. The dose range for the standard agonist for human recombinant TP receptors was from 10^−12M to 10^−6M. HBSS-HEPES buffer was used as the negative control for the standard agonists. Cells were excited with LED (light emitting diode) excitation at 470-495 nm and emission was measured through an emission filter at 515-575 nm. Assay plates were read for 3.5 minutes using the FLIPR^TETRA. The peak increase in fluorescence intensity was recorded for each well. On each plate, negative controls, dose response of positive controls, and co-treatments of antagonist-agonist for each dose were in triplicates. Standard agonists were as follows: DP=BW 245C, EP1-EP4=PGE2, FP=17-phenyl-PGF2α, IP=Cicaprost, and TP=U-46619. […]

[2] = target: T2, human prostanoid TP receptor (Homo sapiens, UniProt P21731); assay: FLIPR Ca2+ signaling PG antagonist assay, TP stable cell line; details: HEK-293 EBNA cells, human recombinant TP, no exogenous G-protein; standard agonist U-46619
T2 construct: expressed in transfected cells
T2 sequence (P21731 1-343): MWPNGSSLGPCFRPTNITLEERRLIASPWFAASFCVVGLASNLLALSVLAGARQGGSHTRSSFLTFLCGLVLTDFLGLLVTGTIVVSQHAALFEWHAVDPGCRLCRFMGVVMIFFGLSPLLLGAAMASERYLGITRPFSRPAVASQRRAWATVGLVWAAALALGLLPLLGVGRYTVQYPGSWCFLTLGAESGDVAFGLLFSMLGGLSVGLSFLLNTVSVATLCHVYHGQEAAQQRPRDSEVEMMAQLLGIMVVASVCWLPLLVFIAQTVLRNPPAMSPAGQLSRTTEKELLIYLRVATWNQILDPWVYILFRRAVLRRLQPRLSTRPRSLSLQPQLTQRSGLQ
Experimental: as §1, §2, §3

[3] = target: T3, human prostanoid FP receptor (Homo sapiens, UniProt P43088); assay: FLIPR Ca2+ signaling PG antagonist assay, FP stable cell line; details: HEK-293 EBNA cells, human recombinant FP, no exogenous G-protein; standard agonist 17-phenyl-PGF2α
T3 construct: expressed in transfected cells
Experimental: as §1, §2, §3

[4] = target: T4, human prostanoid DP1 receptor (Homo sapiens, UniProt Q13258); assay: FLIPR Ca2+ signaling PG antagonist assay, DP1 stable cell line; details: HEK-293 EBNA cells, human recombinant DP1 with chimeric Gqs; standard agonist BW 245C; read-out: DP (Kb, PG antagonist activity)
T4 construct: expressed in transfected cells
T4 sequence (Q13258 1-359): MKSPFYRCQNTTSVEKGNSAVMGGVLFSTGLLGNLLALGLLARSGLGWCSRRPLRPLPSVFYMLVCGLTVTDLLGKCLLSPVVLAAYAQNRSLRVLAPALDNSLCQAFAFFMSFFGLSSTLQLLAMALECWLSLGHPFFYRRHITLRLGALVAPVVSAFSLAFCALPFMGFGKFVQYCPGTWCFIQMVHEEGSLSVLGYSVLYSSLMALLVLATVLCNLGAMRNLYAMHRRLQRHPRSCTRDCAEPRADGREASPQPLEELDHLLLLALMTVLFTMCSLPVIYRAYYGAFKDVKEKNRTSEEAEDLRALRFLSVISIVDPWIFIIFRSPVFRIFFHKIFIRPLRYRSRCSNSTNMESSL
Experimental: as §1, §2, §3

T1 sequence (P43119 whole entry): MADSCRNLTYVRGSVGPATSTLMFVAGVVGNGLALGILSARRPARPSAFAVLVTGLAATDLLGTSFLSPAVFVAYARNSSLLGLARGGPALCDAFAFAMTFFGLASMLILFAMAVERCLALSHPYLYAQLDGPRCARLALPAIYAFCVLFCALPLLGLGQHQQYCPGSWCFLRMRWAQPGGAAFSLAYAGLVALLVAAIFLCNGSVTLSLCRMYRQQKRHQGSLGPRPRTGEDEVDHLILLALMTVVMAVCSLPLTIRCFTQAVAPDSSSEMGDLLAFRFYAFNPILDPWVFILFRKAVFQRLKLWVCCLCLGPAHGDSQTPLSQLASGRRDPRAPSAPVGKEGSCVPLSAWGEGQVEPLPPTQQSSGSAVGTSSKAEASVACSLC
T3 sequence (P43088 whole entry): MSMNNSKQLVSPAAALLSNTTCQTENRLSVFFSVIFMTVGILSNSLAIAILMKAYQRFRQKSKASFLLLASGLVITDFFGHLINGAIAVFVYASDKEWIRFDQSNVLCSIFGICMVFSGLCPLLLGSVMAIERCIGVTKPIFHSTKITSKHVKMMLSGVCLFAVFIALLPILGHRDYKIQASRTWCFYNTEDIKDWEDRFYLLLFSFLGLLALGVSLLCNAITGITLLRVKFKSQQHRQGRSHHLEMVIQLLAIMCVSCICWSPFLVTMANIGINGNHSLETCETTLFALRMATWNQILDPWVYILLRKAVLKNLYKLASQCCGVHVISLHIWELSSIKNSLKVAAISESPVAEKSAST

Molecule | Kb [1] | Kb [2] | Kb [3] | Kb [4]
CCC(CC)COc1ccc(OC(F)(F)F)cc1Cn1ccc2cc(C(=O)O)cnc21 [Example 76, 1-[2-(2-Ethyl-Butoxy)-5-Trifluoromethoxy-Benzyl]-1H-Pyrrolo[2,3-B]Pyridine-5-Carboxylic Acid] | 1400 nM | 20 nM | – | –
1-(5-Bromo-2-Isobutoxy-Benzyl)-1H-Pyrrolo[2,3-B]Pyridine-5-Carboxylic Acid [Example 30] | 6000 nM | 5 nM | – | –
1-[5-Bromo-2-(2-Ethyl-Butoxy)-Benzyl]-1H-Pyrrolo[2,3-B]Pyridine-5-Carboxylic Acid [Example 31] | 520 nM | – | – | –
CC(C)COc1ccc(Br)cc1Cn1cc2ccc(C(=O)O)cc2n1 [Example 43, 2-(5-Bromo-2-Isobutoxy-Benzyl)-2H-Indazole-6-Carboxylic Acid] | 4900 nM | 110 nM | 2200 nM | 2000 nM
